Literature values, collected in publication PMC4059071 (Angewandte Chemie (International ed. in English), 2013).

System: Akt
Conditions: ref [13]

Cc1n[nH]c2ccc(-c3cncc(OC[C@@H](N)Cc4c[nH]c5ccccc45)c3)cc12 [A-443654]
effect on Akt phosphorylation (Thr308 and Ser473 of Akt): paradoxical hyperphosphorylation of Akt at both Thr308 and Ser473 | effect on Akt protein activity after inhibitor dissociation: protein reactivation after inhibitor dissociation
